The record followed here is patent US7074789B2, “Kinase inhibitors” (Amgen Inc., priority 1999, dated 2006).

Common to all, as to assay type: biochemical
The target in one assay is T1, AKT (Homo sapiens, UniProt Q9Y243).
T1 construct: Kinases are expressed as either kinase domains or full length constructs; made in house
The assay is described as follows: Kinase inhibition assay (33P transfer), AKT. Conditions: Table 2, kinase inhibition class; read-out: AKT3-1. The procedure, abridged: (§1)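 Each kinase, expressed as a GST- or polyHis-tagged domain or full-length protein, phosphorylated plate-attached poly(Glu,Tyr) 4:1 or poly(Arg,Ser) 3:1 using 33P-ATP. Bound radioactivity was measured by scintillation after a 0.5% phosphoric acid wash.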

Another assay has as its target T2, PDGFRB (Homo sapiens, UniProt P09619).
T2 construct: Kinases are expressed as either kinase domains or full length constructs; made in house
The assay is described as follows: Kinase inhibition assay (33P transfer), PDGFRB. Conditions: read-out: PDGFRB-1.

Another assay has as its target T3, c-Met (Homo sapiens, UniProt P08581).
T3 construct: Kinases are expressed as either kinase domains or full length constructs; made in house
The assay can be described thus: Kinase inhibition assay (33P transfer), c-Met. Conditions: Table 2, kinase inhibition class; read-out: Met-1. The procedure, abridged:
(§2)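 Kinase domains or full-length enzymes, GST- or polyHis-tagged, were expressed in E. coli or baculovirus High Five cells and affinity-purified. Transfer of 33PO4 from ATP onto plate-bound poly(Glu,Tyr) 4:1 or poly(Arg,Ser) 3:1 was counted by liquid scintillation after a 0.5% phosphoric acid wash. IC50 = concentration halving incorporation.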

For the next assay, the target named is T4, Itk (Homo sapiens, UniProt Q08881).
T4 construct: Kinases are expressed as either kinase domains or full length constructs; made in house
T4 sequence (Q08881 1-620): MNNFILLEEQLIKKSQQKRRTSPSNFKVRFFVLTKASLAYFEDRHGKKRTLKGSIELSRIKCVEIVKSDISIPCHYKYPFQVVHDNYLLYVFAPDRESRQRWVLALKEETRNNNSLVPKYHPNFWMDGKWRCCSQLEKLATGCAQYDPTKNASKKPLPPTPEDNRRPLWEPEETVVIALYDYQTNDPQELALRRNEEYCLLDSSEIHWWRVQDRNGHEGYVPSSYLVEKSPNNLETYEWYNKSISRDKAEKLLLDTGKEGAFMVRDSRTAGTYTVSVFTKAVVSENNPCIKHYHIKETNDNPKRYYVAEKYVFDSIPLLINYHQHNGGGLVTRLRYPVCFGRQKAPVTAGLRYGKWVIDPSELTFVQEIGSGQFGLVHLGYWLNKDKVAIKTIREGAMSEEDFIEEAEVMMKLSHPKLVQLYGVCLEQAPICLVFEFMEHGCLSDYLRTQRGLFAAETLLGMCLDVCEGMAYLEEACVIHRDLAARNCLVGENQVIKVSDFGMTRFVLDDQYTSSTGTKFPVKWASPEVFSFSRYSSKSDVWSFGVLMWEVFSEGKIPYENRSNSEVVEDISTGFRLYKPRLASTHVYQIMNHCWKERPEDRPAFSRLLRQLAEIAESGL
The assay is described as follows: Kinase inhibition assay (33P transfer), Itk. The conditions noted are these: read-out: Itk-1. In a few lines: as §2

Another assay addresses T5, Zap-70 (Homo sapiens, UniProt P43403).
T5 construct: Kinases are expressed as either kinase domains or full length constructs; made in house
T5 sequence (P43403 1-619): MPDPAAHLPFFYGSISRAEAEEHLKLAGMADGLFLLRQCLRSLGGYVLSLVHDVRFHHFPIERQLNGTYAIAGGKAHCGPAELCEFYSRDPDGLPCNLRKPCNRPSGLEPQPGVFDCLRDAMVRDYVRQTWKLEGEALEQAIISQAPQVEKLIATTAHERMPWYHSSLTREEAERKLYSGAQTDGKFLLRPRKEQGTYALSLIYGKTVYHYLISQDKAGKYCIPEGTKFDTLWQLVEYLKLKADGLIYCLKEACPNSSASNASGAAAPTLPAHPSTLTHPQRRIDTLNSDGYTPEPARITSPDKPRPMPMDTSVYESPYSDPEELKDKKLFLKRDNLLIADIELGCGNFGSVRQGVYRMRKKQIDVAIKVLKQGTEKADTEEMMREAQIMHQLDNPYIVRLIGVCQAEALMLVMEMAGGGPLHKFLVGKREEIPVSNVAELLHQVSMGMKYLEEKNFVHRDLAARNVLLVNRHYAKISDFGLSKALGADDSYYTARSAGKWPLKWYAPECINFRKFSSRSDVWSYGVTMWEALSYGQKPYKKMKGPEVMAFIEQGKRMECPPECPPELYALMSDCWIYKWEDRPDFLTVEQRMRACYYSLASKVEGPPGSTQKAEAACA
The assay can be described thus: Kinase inhibition assay (33P transfer), Zap-70. The conditions noted are these: read-out: Zap-1. The procedure, abridged:
as §1

A further assay deals with T6, EGFR (Homo sapiens, UniProt P00533).
T6 construct: Kinases are expressed as either kinase domains or full length constructs; made in house
The assay is described as follows: Kinase inhibition assay (33P transfer), EGFR. Conditions: Table 2, kinase inhibition class; read-out: EGFR-1. In a few lines:
as §2

A further assay concerns the target T7, ErbB2 (Homo sapiens, UniProt P04626).
T7 construct: Kinases are expressed as either kinase domains or full length constructs; made in house
The assay can be described thus: Kinase inhibition assay (33P transfer), ErbB2. Conditions: read-out: ErbB2-2. The procedure, abridged: as §2

The next assay addresses T8, Kdr (Homo sapiens, UniProt P35968).
T8 construct: Kinases are expressed as either kinase domains or full length constructs; made in house
The assay can be described thus: Kinase inhibition assay (33P transfer), Kdr. The conditions noted are these: read-out: KDR-1. The procedure, abridged:
as §1

In another assay the target is T9, IGFR-1 (Homo sapiens, UniProt P08069).
T9 construct: Kinases are expressed as either kinase domains or full length constructs; made in house
T9 sequence (P08069 31-1367): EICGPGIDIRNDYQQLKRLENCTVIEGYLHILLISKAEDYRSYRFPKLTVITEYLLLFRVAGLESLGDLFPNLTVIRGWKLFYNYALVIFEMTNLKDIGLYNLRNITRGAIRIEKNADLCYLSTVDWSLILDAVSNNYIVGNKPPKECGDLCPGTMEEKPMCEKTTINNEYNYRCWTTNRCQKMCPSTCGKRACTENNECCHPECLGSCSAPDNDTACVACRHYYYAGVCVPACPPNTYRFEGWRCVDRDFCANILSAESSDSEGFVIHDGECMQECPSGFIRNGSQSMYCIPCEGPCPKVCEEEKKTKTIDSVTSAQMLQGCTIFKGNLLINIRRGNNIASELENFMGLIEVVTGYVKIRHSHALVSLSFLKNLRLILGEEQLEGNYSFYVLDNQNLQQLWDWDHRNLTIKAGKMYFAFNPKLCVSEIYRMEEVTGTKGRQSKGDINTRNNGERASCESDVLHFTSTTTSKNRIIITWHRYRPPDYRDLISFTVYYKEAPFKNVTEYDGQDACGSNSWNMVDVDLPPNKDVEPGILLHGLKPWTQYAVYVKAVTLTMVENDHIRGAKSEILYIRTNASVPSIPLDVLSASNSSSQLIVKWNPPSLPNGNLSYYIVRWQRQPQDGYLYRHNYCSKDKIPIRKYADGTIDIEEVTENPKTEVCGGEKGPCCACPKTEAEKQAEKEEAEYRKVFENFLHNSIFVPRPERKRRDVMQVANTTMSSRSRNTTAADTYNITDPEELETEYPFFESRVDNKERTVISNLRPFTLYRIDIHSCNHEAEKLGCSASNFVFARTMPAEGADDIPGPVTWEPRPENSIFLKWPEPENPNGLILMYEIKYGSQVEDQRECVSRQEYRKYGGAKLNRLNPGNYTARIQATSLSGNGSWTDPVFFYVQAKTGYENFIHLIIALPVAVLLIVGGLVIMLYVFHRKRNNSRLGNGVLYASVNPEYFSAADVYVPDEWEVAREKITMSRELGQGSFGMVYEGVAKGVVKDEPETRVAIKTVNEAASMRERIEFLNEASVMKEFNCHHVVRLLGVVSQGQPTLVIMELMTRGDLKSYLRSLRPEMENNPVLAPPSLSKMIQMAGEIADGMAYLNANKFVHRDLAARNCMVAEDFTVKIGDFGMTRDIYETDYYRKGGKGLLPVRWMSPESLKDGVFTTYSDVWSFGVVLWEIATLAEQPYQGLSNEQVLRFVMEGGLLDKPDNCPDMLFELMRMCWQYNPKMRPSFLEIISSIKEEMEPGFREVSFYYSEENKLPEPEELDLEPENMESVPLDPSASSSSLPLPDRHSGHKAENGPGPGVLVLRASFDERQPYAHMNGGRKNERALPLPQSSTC
The assay can be described thus: Kinase inhibition assay, IGFR-1 (Table 2). The conditions noted are these: Table 2, kinase inhibition class.

The next assay deals with T10, Lck (Homo sapiens, UniProt P06239).
T10 construct: Kinases are expressed as either kinase domains or full length constructs; made in house
T10 sequence (P06239 whole entry, species assumed, the tested form may be a part): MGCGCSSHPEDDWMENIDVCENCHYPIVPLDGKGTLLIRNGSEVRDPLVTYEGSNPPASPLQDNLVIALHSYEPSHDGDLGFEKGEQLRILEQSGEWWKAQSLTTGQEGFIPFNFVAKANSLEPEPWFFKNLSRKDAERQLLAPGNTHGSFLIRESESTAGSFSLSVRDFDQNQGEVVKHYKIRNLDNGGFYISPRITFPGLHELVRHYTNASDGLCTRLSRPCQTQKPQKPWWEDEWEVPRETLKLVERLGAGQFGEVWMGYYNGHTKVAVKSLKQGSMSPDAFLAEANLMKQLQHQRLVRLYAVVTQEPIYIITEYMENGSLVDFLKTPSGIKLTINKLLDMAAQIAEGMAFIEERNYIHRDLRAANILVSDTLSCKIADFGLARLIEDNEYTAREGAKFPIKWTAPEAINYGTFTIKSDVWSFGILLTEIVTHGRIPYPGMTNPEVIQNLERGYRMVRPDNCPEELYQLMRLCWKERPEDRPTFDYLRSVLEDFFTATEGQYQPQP
The assay can be described thus: Kinase inhibition assay (33P transfer), Lck. Conditions: read-out: Lck-1. In a few lines: as §1

T8 sequence (P35968 20-1356, species assumed): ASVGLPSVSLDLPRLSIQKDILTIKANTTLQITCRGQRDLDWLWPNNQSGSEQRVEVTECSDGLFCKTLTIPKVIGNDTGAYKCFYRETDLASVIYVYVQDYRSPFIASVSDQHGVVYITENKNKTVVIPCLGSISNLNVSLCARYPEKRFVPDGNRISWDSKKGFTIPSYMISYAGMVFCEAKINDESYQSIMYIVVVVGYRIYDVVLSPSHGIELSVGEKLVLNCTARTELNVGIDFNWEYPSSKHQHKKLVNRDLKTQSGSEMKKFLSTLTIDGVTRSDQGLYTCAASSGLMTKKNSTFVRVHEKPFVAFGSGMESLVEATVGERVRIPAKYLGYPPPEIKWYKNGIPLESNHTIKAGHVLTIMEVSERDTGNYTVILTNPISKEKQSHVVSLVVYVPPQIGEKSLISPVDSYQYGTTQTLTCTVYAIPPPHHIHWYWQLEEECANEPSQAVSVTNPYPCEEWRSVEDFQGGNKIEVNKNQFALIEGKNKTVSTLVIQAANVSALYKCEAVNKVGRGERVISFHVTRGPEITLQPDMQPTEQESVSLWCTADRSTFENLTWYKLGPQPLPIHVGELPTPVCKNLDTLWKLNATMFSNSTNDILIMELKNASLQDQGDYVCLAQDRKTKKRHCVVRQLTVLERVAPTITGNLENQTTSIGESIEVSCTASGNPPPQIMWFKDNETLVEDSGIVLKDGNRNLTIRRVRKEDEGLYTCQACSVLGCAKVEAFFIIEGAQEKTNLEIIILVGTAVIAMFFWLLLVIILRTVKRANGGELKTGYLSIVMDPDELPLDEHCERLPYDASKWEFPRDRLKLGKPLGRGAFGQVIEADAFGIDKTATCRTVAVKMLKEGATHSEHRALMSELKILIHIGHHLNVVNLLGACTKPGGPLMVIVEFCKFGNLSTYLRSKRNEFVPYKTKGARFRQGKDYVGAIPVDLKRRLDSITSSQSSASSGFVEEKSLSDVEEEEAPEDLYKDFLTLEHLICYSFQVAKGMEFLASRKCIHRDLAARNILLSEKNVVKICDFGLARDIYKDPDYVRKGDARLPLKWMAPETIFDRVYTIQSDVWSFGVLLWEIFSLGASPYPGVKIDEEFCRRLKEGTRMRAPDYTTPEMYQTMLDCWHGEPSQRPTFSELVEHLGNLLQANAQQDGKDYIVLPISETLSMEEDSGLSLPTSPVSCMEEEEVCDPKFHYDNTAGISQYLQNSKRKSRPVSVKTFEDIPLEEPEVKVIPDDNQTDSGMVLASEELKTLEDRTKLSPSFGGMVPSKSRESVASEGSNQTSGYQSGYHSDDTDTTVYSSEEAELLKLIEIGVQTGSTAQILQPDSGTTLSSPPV
T2 sequence (P09619 33-1106, species assumed): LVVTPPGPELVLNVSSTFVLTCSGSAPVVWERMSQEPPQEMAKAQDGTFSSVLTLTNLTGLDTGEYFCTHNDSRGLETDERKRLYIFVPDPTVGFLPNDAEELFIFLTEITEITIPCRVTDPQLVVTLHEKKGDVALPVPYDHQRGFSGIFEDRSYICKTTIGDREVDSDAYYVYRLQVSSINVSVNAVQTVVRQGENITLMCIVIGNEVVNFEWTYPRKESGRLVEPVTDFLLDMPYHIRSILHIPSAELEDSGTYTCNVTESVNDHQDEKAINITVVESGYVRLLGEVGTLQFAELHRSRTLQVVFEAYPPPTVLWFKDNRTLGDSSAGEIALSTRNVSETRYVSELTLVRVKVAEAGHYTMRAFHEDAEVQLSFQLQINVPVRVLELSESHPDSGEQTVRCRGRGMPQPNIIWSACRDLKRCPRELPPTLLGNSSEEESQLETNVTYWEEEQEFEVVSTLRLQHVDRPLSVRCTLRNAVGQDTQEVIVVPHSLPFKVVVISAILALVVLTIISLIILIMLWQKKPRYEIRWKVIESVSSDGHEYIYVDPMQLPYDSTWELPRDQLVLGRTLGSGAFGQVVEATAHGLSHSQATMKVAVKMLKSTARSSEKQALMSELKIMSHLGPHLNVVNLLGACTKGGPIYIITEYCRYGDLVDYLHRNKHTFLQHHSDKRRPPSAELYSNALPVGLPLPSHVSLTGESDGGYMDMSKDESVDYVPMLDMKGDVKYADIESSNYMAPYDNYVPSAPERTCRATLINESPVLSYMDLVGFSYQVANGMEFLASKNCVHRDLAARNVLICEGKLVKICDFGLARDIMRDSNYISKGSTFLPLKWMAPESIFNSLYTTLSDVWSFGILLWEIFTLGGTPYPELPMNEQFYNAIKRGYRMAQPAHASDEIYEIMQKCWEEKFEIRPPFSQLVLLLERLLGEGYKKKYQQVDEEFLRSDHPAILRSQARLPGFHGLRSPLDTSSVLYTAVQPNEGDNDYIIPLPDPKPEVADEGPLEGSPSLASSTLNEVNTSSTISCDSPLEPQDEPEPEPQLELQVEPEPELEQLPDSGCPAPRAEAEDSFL
T1 sequence (Q9Y243 whole entry, the tested form may be a part): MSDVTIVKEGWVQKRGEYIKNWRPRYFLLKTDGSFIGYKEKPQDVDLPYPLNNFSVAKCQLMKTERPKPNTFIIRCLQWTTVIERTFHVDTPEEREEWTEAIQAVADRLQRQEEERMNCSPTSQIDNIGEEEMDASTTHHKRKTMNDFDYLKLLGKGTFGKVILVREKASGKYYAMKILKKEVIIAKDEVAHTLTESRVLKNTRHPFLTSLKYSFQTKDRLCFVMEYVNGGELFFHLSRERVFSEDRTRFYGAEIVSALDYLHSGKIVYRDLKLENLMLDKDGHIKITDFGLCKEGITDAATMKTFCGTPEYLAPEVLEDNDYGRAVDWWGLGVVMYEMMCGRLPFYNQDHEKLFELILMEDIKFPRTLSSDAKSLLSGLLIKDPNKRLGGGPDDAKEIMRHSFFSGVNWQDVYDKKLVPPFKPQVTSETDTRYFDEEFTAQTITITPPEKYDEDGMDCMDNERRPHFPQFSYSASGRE

As for `CN(c1cccc(Cl)c1)c1ncnc(Nc2cc(-c3ccco3)[nH]n2)n1` [Compound 753], the IC50 on AKT is > 12.2 µM; at PDGFRB, 1.09 to 6.53 µM; on c-Met, 1.09 to 6.53 µM; on Itk, 1.09 to 6.53 µM; at Zap-70, 1.09 to 6.53 µM; at EGFR, < 1.09 µM. The IC50 at ErbB2, at Kdr, on IGFR-1 and at Lck was 1.09 to 6.53 µM throughout.
With `CN(c1cccc(Cl)c1)c1ncnc(Nc2ccc(C(F)(F)F)cc2)n1` [Compound 744], the IC50 is > 11.8 µM on AKT; > 11.8 µM on PDGFRB; > 11.8 µM on c-Met; > 11.8 µM on Itk; > 11.8 µM at Zap-70; 1.05 to 6.32 µM on EGFR. The IC50 on ErbB2, at Kdr, against IGFR-1 and at Lck was > 11.8 µM throughout.
As for `CNS(=O)(=O)Cc1ccc(Nc2ncnc(Nc3ccc4c(cnn4Cc4ccccc4)c3)n2)cc1` [Compound 736], the IC50 at AKT, at PDGFRB, on c-Met, at Itk, at Zap-70 and at EGFR was 0.799 to 4.79 µM each time. In addition, the IC50 on ErbB2, at Kdr, at IGFR-1 and at Lck was 0.799 to 4.79 µM in each case.
`COc1cc(Nc2ncnc(N(C)c3ccc4c(cnn4Cc4ccccc4)c3)n2)cc(OC)c1OC` [Compound 566]: the IC50 on AKT was > 9.04 µM; at PDGFRB it was 0.804 to 4.82 µM; on c-Met, 0.804 to 4.82 µM; on Itk it was > 9.04 µM; on Zap-70 it was > 9.04 µM; at EGFR it was < 0.804 µM. Moreover, the IC50 at ErbB2 is < 0.804 µM; on Kdr, < 0.804 µM; on IGFR-1, 7.03 to 9.04 µM; at Lck it was < 0.804 µM.
For `COc1ccc(CNc2nc3ccccc3n2-c2ncnc(Nc3cccc(CC(=O)O)c3)n2)cc1` [Compound 534], the IC50 on AKT is > 9.35 µM; on PDGFRB it was 0.831 to 4.98 µM; at c-Met, > 9.35 µM; at Itk, > 9.35 µM; on Zap-70, > 9.35 µM; at EGFR it was > 9.35 µM. The IC50 is > 9.35 µM at ErbB2, < 0.831 µM at Kdr, > 9.35 µM at IGFR-1 and 7.27 to 9.35 µM at Lck.
`Fc1ccc(Nc2ncnc(Nc3ccc4[nH]ncc4c3)n2)cc1Cl` [Compound 717]: the IC50 at AKT was > 12.6 µM; on PDGFRB, < 1.12 µM; on c-Met, 1.12 to 6.75 µM; on Itk, 1.12 to 6.75 µM; on Zap-70, 1.12 to 6.75 µM; at EGFR it was < 1.12 µM. Further, the IC50 at ErbB2, at Kdr, against IGFR-1 and at Lck was 1.12 to 6.75 µM throughout.
For `c1ccc(Cn2ncc3cc(Nc4ncnc(NCC5CCCCC5)n4)ccc32)cc1` [Compound 727], the IC50 is > 10.9 µM on AKT; > 10.9 µM at PDGFRB; 8.46 to 10.9 µM on c-Met; > 10.9 µM at Itk; 5.8 to 8.46 µM at Zap-70; > 10.9 µM at EGFR. Also, the IC50 was > 10.9 µM at ErbB2, 8.46 to 10.9 µM at Kdr, > 10.9 µM against IGFR-1 and > 10.9 µM on Lck.
As for `COc1ccc(Nc2ncnc(N3CCCc4ccc(C)cc43)n2)cc1OC` [Compound 567], the IC50 was > 11.9 µM at AKT; 1.06 to 6.36 µM at PDGFRB; 1.06 to 6.36 µM on c-Met; > 11.9 µM at Itk; > 11.9 µM on Zap-70; < 1.06 µM at EGFR. In addition, the IC50 is 6.36 to 9.27 µM on ErbB2, < 1.06 µM at Kdr, > 11.9 µM at IGFR-1 and 1.06 to 6.36 µM at Lck.
In the case of `COc1cc(Nc2ncnc(Nc3cc(Cl)ccc3C)n2)cc(OC)c1OC` [Compound 625], the IC50 is > 11.2 µM on AKT; < 0.995 µM at PDGFRB; > 11.2 µM on c-Met; > 11.2 µM at Itk; > 11.2 µM at Zap-70; < 0.995 µM at EGFR. For the same compound, the IC50 at ErbB2 is < 0.995 µM; at Kdr, 0.995 to 5.97 µM; on IGFR-1 it was 0.995 to 5.97 µM; at Lck, < 0.995 µM.
Take `Cc1ccc2c(c1)CCCN2c1ncnc(NCCCn2ccnc2)n1` [Compound 772]: the IC50 at AKT is > 12.9 µM; at PDGFRB, 10 to 12.9 µM; at c-Met it was > 12.9 µM; on Itk, 10 to 12.9 µM; on Zap-70, > 12.9 µM; at EGFR, > 12.9 µM. Further, the IC50 on ErbB2, on Kdr, on IGFR-1 and on Lck was > 12.9 µM in each case.
With `CN1CCN(Cc2cccc(Nc3ncnc(Nc4ccc5c(cnn5Cc5ccccc5)c4)n3)c2)CC1` [Compound 552], the IC50 on AKT, at PDGFRB, at c-Met, at Itk, at Zap-70 and at EGFR was > 8.9 µM throughout. In addition, the IC50 on ErbB2, at Kdr, at IGFR-1 and at Lck was > 8.9 µM throughout.
`COC(=O)Cc1cccc(Nc2ncnc(-n3c(NCc4ccccn4)nc4ccccc43)n2)c1` [Compound 547]: the IC50 on AKT, at PDGFRB, on c-Met, on Itk, at Zap-70 and on EGFR was > 9.65 µM in each case. Further, the IC50 at ErbB2 is > 9.65 µM; on Kdr, < 0.857 µM; against IGFR-1, > 9.65 µM; at Lck, > 9.65 µM.
Turning to `COc1cc(Nc2ncnc(Nc3ccc4c(cnn4C)c3)n2)cc(OC)c1OC` [Compound 557], the IC50 at AKT is > 11 µM; at PDGFRB, < 0.982 µM; on c-Met, > 11 µM; at Itk it was 8.59 to 11 µM; at Zap-70, > 11 µM; on EGFR it was 0.982 to 5.89 µM. Moreover, the IC50 is < 0.982 µM at ErbB2, 0.982 to 5.89 µM on Kdr, < 0.982 µM on IGFR-1 and < 0.982 µM at Lck.
Turning to `Cc1cccc(Nc2ncnc(Nc3ccc4c(cnn4Cc4ccccc4)c3)n2)c1` [Compound 553], the IC50 at AKT was 5.89 to 8.59 µM; at PDGFRB, 0.982 to 5.89 µM; at c-Met it was 0.982 to 5.89 µM; on Itk it was 8.59 to 11 µM; on Zap-70, 5.89 to 8.59 µM; on EGFR, < 0.982 µM. Also, the IC50 was 0.982 to 5.89 µM at ErbB2, 0.982 to 5.89 µM at Kdr, 8.59 to 11 µM against IGFR-1 and > 11 µM on Lck.
